Laboratory results from article PMC12430443, “Discovery of Novel Benzamide-Based Sigma-1 Receptor Agonists with Enhanced Selectivity and Safety” (Molecules, 2025).
Converted amounts (≈) assume the structure as drawn. Read-outs that look alike come from different tables or passages of the source.

What was measured:
ABST = ABST (Homo sapiens, UniProt Q12908); test: Transporter inhibition in overexpressing cell lines; type: in vitro ADME; conditions: SLC family, n = 2, read-out: Drug transport inhibition ABST
Description: (§1) Microsomal stability was evaluated using human liver microsomes at 10 µM (Table 3). […] Since cytochrome P450 (CYP) enzymes—especially families 1 to 3—play major roles in drug metabolism, CYP inhibition was tested against the human isoforms CYP1A, 2B6, 2C8, 2C9, 2C19, 2D6, and 3A, as recommended by FDA and EMA guidelines. […] Membrane transport proteins, including the ATP-binding cassette (ABC) and solute carrier (SLC) families, affect drug pharmacokinetics and potential drug–drug interactions. The inhibitory effects of compounds 2 and 6 were assessed against five ABC transporters (P-gp, BCRP, MRP1, MRP2, and MRP3) and seven SLC transporters (OAT1, OAT3, OATP1B1, OCT1, OCT2, ASBT, and NTCP).
(§2) Standardized in vitro ADME experiments were performed by Eurofins Cerep (Poitiers, France). Solubility assays were performed in PBS at pH 7.4, but also in simulated gastric fluid (SGF) and intestinal fluid (SIF), through the classical shake-flask method described by Lipinski et al., using HPLC-UV/VIS technology. The results were expressed in µM. The compound was classically evaluated at 10 µM for all of the ADME analyses. Bidirectional permeability (apical A to basolateral B pH 6.5/7.4, and basolateral B to apical A pH 7.4/6.5) was assessed in the epithelial colorectal adenocarcinoma cell line (Caco-2 cell line). The results were expressed as ×10^−6 cm/s (Papp) and as % recovery. The efflux ratio, i.e., Papp (B→A)/Papp(A→B), was calculated. Plasma protein binding was analyzed by HPLC-MS/MS after 4 h of incubation at 37 °C, as described by Banker et al.. Concentration was evaluated by LC/MS-MS. CYP inhibition was performed in human liver microsomes as described in [28]. Analysis of the respective metabolites was performed by HPLC-MS/MS. Transporter inhibition analysis was also performed in overexpressing cell lines. Respective metabolites for each specific transporter substrate were analyzed by fluorometry or scintillation counting, and % inhibition of control values were calculated. P-glycoprotein transporter substrate assessment was performed by bidirectional permeability analysis (apical A to basolateral B pH 7.4/7.4, and basolateral B to apical A pH 7.4/7.4) in the Caco-2 cell line with and without verapamil, as described in [26]. The results were expressed as ×10^−6 cm/s (Papp) and as % recovery. The efflux ratio was calculated as Papp(B→A)/Papp(A→B). CYP450 induction was assessed in human hepatocytes by measuring the mRNA levels of seven CYP isoforms via qPCR, as described in [40]. The compound was tested at 1, 10, and 100 μM, and fold-induction values were compared with predefined cut-off thresholds for each isoform and hepatocyte lot.

OATP1B1 = OATP1B1 (Homo sapiens, UniProt Q9Y6L6); test: as above; type: in vitro ADME; conditions: SLC family, n = 2, read-out: Drug transport inhibition OATP1B1
Description: as §1, §2

OCT2 = OCT2 (Homo sapiens, UniProt O15244); test: as above; type: in vitro ADME; conditions: SLC family, n = 2, read-out: Drug transport inhibition OCT2
Description: as §1, §2

MRP1 = MRP1 (Homo sapiens, UniProt P33527); test: as above; type: in vitro ADME; conditions: ABC family, n = 2, read-out: Drug transport inhibition MRP1
Description: as §1, §2

NTCP = NTCP (Homo sapiens, UniProt Q14973); test: as above; type: in vitro ADME; conditions: SLC family, n = 2, read-out: Drug transport inhibition NTCP
Description: as §1, §2

MRP3 = MRP3 (Homo sapiens, UniProt O15438); test: as above; type: in vitro ADME; conditions: ABC family, n = 2, read-out: Drug transport inhibition MRP3
Description: as §1, §2

OAT3 = OAT3 (Homo sapiens, UniProt Q8TCC7); test: as above; type: in vitro ADME; conditions: SLC family, n = 2, read-out: Drug transport inhibition OAT3
Description: as §1, §2

MRP2 = MRP2 (Homo sapiens, UniProt Q92887); test: as above; type: in vitro ADME; conditions: ABC family, n = 2, read-out: Drug transport inhibition MRP2
Description: as §1, §2

[1] = Cytotoxicity, MTT/MTS assay; type: cell-based, human; conditions: human, SH-SY5Y neuroblastoma cells; percentage of cell death after 24 h treatment at 100 µM (duplicate); read-out: SY5Y % Cytotox
Description: (§3) To assess potential cytotoxicity in CNS-relevant cells, human neuroblastoma (SH-SY5Y) cells were exposed to compounds 2–7 at concentrations up to 100 μM. Cell viability was measured using the MTT assay.
(§4) Cytotoxicity was assessed in human SH-SY5Y neuroblastoma cells cultured in Dulbecco’s Modified Eagle Medium (DMEM, Gibco, Thermo Fisher Scientific Inc., Waltham, MA, USA) supplemented with 2 mM L-glutamine, 100 μg/mL streptomycin, 100 IU/mL penicillin, 1 mM non-essential amino acids (all from Invitrogen, Thermo Fisher Scientific Inc., Waltham, MA, USA), and 10% (v/v) heat-inactivated fetal bovine serum (Sigma-Aldrich, Burlington, MA, USA). Cells were maintained at 37 °C in a humidified 5% CO2 atmosphere and serum-starved for 24 h to synchronize cultures before treatment with the test compounds at final concentrations of 100, 50, 10, 5, 1, 0.5, 0.1, or 0.05 μM (all in <0.1% DMSO). […] Absorbance was measured at 490 nm, and the results were expressed as a percentage relative to untreated control cells (set at 100%).

[2] = system: SH-SY5Y neuroblastoma cells; test: Cytotoxicity, MTT/MTS assay; type: cell-based, human; conditions: selectivity index; IC50 was considered > 100 µM
Description: as §3, §4

[3] = Solubility, shake-flask method, HPLC-UV/VIS; type: physicochemical; conditions: thermodynamic from solid, n = 2
Description: Solubility and stability remained unchanged in simulated gastric fluid (SGF) and simulated intestinal fluid (SIF), which mimic gastrointestinal digestion. Intestinal permeability was assessed using a two-chamber system with apical (A, pH 6.5) and basolateral (B, pH 7.4) compartments, representing the luminal and blood/mesenteric lymph sides of the gastrointestinal tract, respectively. […] The efflux ratios for both compounds ranged between 1 and 2, indicating improved permeability relative to the reference compound 1.
as §2

[4] = aqueous buffer, PBS pH 7.4, read-out: Solubility PBSpH7.4
[5] = simulated gastric fluid (SGF), simulated gastric fluid, read-out: Solubility SGF
[6] = simulated intestinal fluid (SIF), fassgf or other biorelevant, simulated intestinal fluid, read-out: Solubility SIF

Sequence of OCT2 (O15244 whole entry): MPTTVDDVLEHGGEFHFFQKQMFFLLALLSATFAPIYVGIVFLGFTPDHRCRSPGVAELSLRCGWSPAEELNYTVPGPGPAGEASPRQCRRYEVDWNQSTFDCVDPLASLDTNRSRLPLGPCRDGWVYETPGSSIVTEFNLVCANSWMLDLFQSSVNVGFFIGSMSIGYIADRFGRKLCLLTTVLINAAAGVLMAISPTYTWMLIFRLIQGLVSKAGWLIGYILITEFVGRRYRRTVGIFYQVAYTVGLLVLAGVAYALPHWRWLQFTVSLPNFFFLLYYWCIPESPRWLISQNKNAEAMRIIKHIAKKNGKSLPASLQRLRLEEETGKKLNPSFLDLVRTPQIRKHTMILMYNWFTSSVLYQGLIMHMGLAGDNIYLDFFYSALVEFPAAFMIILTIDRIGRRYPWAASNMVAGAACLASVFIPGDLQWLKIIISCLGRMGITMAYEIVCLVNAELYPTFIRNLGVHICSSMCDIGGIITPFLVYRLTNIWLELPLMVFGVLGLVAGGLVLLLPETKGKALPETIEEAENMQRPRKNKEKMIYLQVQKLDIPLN
Sequence of OATP1B1 (Q9Y6L6 whole entry): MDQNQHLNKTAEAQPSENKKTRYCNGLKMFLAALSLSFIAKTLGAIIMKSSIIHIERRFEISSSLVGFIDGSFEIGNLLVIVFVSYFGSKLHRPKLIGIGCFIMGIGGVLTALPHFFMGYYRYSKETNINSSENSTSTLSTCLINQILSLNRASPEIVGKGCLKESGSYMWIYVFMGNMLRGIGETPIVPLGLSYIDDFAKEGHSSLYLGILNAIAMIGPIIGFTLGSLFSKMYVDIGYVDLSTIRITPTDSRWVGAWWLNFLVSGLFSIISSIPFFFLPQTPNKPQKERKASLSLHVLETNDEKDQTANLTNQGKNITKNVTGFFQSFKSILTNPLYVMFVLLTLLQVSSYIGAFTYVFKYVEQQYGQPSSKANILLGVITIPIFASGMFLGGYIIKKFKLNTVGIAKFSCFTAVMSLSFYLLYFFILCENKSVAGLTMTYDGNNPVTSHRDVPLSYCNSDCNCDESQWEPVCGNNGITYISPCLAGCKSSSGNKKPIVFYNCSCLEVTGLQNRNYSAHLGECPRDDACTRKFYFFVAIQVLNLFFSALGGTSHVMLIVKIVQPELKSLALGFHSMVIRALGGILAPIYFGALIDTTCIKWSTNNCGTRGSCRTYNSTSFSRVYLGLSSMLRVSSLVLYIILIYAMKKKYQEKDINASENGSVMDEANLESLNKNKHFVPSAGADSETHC
Sequence of NTCP (Q14973 whole entry): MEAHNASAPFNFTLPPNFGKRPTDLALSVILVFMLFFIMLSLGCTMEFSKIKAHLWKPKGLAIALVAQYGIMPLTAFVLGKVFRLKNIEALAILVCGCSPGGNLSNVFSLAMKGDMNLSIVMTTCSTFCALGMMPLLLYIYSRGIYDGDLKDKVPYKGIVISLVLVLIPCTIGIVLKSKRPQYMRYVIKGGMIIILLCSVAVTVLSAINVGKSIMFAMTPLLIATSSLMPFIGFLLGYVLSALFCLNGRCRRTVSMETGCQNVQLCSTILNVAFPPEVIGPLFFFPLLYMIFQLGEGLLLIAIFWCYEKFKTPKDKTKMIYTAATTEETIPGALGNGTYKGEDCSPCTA
Sequence of ABST (Q12908 whole entry, canonical isoform): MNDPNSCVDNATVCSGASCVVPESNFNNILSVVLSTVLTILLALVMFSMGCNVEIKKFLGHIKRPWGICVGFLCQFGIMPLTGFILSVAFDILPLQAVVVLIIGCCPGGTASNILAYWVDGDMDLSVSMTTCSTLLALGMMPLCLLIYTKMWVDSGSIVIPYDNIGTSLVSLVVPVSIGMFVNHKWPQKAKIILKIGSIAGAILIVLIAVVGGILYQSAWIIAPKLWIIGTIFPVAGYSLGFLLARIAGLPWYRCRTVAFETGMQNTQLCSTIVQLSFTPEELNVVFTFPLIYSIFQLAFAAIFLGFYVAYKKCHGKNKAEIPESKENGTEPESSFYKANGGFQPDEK
Sequence of MRP2 (Q92887 whole entry): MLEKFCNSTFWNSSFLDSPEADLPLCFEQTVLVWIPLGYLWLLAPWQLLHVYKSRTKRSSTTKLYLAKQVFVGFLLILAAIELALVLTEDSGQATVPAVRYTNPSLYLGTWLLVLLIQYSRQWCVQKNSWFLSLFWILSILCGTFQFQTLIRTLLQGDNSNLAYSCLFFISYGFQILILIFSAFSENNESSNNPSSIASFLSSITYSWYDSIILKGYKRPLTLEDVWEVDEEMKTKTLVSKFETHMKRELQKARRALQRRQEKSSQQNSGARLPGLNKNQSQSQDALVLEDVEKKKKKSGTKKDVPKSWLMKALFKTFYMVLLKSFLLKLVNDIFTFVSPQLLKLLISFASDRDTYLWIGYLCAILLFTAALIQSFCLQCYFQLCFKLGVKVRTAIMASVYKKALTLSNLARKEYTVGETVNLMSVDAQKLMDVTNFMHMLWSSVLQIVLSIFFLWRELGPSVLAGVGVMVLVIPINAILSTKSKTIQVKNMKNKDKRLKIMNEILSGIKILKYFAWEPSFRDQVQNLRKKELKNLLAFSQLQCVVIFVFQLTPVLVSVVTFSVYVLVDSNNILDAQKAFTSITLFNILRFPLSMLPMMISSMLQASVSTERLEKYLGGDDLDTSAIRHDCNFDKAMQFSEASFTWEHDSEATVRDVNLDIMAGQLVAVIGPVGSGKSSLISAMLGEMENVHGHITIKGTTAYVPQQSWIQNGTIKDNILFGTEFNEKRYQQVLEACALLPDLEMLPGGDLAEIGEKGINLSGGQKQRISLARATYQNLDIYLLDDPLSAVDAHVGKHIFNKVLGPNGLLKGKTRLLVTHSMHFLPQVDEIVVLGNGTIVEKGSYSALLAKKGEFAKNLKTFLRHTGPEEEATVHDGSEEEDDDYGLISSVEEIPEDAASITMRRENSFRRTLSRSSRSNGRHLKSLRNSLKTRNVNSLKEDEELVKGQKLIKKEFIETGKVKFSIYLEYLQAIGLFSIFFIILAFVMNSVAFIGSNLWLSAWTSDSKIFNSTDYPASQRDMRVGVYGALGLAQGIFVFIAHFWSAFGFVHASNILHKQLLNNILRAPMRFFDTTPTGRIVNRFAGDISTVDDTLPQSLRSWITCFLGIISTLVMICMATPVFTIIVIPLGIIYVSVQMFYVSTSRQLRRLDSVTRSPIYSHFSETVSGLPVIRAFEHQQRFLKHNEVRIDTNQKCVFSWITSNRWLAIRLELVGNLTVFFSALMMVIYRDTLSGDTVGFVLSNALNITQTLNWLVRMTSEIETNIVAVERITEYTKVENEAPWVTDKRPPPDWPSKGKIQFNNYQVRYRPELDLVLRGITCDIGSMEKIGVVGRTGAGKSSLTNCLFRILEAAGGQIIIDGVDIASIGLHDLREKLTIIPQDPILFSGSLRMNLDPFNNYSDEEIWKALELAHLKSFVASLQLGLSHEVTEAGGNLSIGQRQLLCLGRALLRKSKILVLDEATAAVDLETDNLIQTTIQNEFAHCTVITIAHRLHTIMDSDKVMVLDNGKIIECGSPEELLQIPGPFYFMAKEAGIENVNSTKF
Sequence of MRP1 (P33527 whole entry): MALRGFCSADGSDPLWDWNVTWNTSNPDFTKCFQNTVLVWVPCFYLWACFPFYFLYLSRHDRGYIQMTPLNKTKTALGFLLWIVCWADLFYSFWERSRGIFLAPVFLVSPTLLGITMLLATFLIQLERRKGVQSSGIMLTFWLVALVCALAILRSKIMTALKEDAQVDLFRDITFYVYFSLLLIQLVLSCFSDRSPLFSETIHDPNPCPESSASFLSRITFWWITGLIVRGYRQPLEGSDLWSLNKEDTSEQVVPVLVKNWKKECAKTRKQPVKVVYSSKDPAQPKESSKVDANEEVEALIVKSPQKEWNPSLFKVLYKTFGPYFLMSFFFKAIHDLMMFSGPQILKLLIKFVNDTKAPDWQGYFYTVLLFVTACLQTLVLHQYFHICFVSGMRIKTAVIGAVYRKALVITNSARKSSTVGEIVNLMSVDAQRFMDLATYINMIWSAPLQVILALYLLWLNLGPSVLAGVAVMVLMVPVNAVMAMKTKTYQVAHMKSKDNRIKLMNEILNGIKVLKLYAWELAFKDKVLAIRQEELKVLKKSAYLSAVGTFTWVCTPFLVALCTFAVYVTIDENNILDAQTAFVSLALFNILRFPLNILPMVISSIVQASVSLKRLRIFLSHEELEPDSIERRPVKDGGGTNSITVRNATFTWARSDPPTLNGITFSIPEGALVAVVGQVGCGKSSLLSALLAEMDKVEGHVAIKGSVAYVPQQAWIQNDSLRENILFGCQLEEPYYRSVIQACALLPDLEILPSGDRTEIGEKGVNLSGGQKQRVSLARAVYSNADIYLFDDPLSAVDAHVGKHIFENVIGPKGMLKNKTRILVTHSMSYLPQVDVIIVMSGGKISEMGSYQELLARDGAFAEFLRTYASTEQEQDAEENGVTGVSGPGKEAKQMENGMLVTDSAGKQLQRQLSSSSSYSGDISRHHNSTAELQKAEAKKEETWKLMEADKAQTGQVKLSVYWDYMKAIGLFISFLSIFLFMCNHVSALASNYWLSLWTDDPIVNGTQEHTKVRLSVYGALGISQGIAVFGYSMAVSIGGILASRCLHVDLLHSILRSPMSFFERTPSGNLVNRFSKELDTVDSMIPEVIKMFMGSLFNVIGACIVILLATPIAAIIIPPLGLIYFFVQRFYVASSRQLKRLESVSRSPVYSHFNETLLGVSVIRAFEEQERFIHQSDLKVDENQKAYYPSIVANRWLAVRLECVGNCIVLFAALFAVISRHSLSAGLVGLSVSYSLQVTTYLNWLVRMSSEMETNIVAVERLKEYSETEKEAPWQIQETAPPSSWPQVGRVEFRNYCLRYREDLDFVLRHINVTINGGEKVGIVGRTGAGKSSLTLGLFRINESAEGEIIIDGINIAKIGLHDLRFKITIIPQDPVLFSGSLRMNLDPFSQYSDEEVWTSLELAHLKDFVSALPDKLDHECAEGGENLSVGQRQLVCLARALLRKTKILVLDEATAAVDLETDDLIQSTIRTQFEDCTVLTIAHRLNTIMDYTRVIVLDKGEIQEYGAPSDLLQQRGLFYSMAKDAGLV

SMILES | inhibition at 10 µM (ABST) | inhibition at 10 µM (OATP1B1) | inhibition at 10 µM (OCT2) | inhibition at 10 µM (MRP1) | inhibition at 10 µM (NTCP) | inhibition at 10 µM (MRP3) | inhibition at 10 µM (OAT3) | inhibition at 10 µM (MRP2) | cytotoxicity at 24 h, 100 µM [1] | IC50 (SY5Y)/ Ki (S1R) [2] | solubility [3, 4] | solubility [3, 5] | solubility [3, 6]
CN(CCC(=O)NCc1ccc(C#N)cc1)Cc1ccccc1 [Compound 6, 3-(Benzylmethylamino)-N-(4-cyanobenzyl)propanamide] | -8.9% | 1.3% | 59.3% | -1.1% | -12.5% | 0.4% | 27.8% | 3.3% | 8% | >17,857 | 190 µM (≈ 58.4 µg/mL) | 178 µM (≈ 54.7 µg/mL) | 190 µM (≈ 58.4 µg/mL)
CN(CCC(=O)NCc1cccc(Cl)c1)Cc1ccccc1 [Compound 2, 3-(Benzylmethylamino)-N-(3-chlorobenzyl)propanamide] | 21.8% | 3.9% | 54.1% | -0.3% | 8.7% | 0.7% | 33.3% | 5.6% | 12% | >166,666 | 167 µM (≈ 52.9 µg/mL) | 186 µM (≈ 58.9 µg/mL) | 181 µM (≈ 57.3 µg/mL)
